Test results from BindingDB's records for doi:10.1016/j.ejmech.2016.01.046 (Italian Institute of Technology, 2016).

Biological target: T1, N-acylethanolamine-hydrolyzing acid amidase (Homo sapiens, UniProt Q02083)
T1 sequence (Q02083 whole entry): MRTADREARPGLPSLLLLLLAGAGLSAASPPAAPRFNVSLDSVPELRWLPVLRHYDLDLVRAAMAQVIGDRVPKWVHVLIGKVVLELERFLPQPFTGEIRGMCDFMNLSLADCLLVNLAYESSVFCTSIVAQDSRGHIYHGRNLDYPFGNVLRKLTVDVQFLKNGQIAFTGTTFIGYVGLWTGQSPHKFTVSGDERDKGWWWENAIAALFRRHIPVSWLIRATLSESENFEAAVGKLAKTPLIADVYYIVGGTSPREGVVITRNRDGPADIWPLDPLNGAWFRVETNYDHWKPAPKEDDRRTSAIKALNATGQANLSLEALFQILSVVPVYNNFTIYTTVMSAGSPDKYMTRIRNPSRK
Assay: ChEBML_1558887
Experimental: Inhibition of human NAAA expressed in HEK293 cells preincubated for 10 mins followed by N-(4-methyl-2-oxo-chromen-7-yl)-hexadecanamide substrate addition for 30 mins by microplate reader analysis

## COc1ccc(CCCCOC(=O)N[C@H]2CNC2=O)cc1
  IC50: 0.52 µM
